Test results reported in publication PMC9781003, “Two Antenna-Enriched Odorant Binding Proteins in Dioryctria abietella Tuned to General Odorants and Insecticides” (Insects, 2022).
Where two headings read alike, the source gives them in different places.

Tests used:
DabiOBP14 = assay type: binding, Dioryctria abietella; conditions: for Ki: competitive displacement of 1-NPN, three replicates, mean ± SE, read-out: OBP14 Ki (dissociation constant)
Method: (§1) In the binding assays, we selected 100 compounds derived from host/non-host plants and man-made insecticides widely used for the control of lepidopteran pests, representing 88 general odorants (21 esters, 21 alcohols, 14 aldehydes, 13 alkenes, seven ketones, 11 alkanes and one acid) and 12 insecticides. These compounds and N-phenyl-1-naphthylamine (1-NPN) were purchased from Aladdin and Sigma-Aldrich, with the highest available purity. They were first diluted into 100 mM, using methanol (HPLC purity grade, ≥99.9%) as a stock solution. The concentrations of the work solution for each ligand and 1-NPN were set at 1 mM.
In order to measure the binding properties of the DabiOBPs to the 100 ligands, competitive binding assays were performed on a RF5301PC fluorescence spectrophotometer (Shimadzu, Japan). The concentrations of DabiOBPs and the fluorescent probe 1-NPN were set at 2 μM. The binding of DabiOBPs to 1-NPN in 20 mM Tris-HCl buffer (pH 7.4) was measured by adding final concentrations of 2–16 μM 1-NPN. Accordingly, binding constants (K1-NPN) of the DabiOBPs and 1-NPN were calculated using GraphPad Prism 7 (GraphPad Software Inc., San Diego, CA). The binding of the DabiOBPs to various ligands was conducted by adding different concentrations of ligands (2, 4, 6, 8, 12, 16 and 20 μM) into the DabiOBP5/1-NPN (each 2 μM) or DabiOBP14/1-NPN (each 2 μM) mixtures. For the ligands replacing over a half of 1-NPN fluorescence (50%) at 20 μM, three replicates were performed. The excitation wavelength was set at 337 nm and the emission peaks were recorded at around 400 nm. The dissociation constants (Ki) of the tested ligands to DabiOBPs were computed, using the equation: Ki = [IC50]/(1 + [1-NPN]/K1-NPN), where [1-NPN] was the free concentration of 1-NPN and IC50 was the concentration of ligands replacing 50% of 1-NPN fluorescence.

DabiOBP5 = target: T1, DabiOBP5 (Dioryctria abietella, UniProt A0A8E6HS34); experiment: Competitive fluorescence binding assay with 1-NPN probe, recombinant DabiOBP5
T1 sequence (A0A8E6HS34 19-139): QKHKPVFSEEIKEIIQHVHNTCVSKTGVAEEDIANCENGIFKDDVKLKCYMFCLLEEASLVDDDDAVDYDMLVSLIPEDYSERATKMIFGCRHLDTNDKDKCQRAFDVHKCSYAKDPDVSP
Excerpt: as §1, with “They were first diluted into 100 mM, using methanol (HPLC purity grade, ≥99.9%) as a stock solution.” left out
In order to measure the binding properties of the DabiOBPs to the 100 ligands, competitive binding assays were performed on a RF5301PC fluorescence spectrophotometer (Shimadzu, Japan). The concentrations of DabiOBPs and the fluorescent probe 1-NPN were set at 2 μM. […] Accordingly, binding constants (K1-NPN) of the DabiOBPs and 1-NPN were calculated using GraphPad Prism 7 (GraphPad Software Inc., San Diego, CA). […] For the ligands replacing over a half of 1-NPN fluorescence (50%) at 20 μM, three replicates were performed. The excitation wavelength was set at 337 nm and the emission peaks were recorded at around 400 nm.

[1] = ligand at 20 μM, DabiOBP14/1-NPN each 2 μM, Tris-HCl pH 7.4, NB = no binding
[2] = ligand at 20 μM; DabiOBP5/1-NPN each 2 μM; Tris-HCl pH 7.4; NB = no binding; read-out: OBP5 F.D. (%) fluorescence displacement percent
[3] = ligand at 20 μM; DabiOBP5/1-NPN each 2 μM; Tris-HCl pH 7.4; NB = no binding
[4] = pH 7.4, read-out: OBP5 F.D. (%) fluorescence displacement percent
[5] = read-out: OBP5 Ki (dissociation constant); competitive displacement of 1-NPN; three replicates; mean ± SE

SMILES | OBP14 F.D. (%) fluorescence displacement percent (DabiOBP14; [1]) [%] | inhibition at 20 µM (DabiOBP5; [2]) [%] | other results
CC(C)=CCCC(C)=CC=O (mixture of isomers) [Citral] | 32.25 | 39 | 
C=CC(C)(O)CCC=C(C)CCC=C(C)C (mixture of isomers) [Nerolidol] | 37.52 | 34.6 | 
CCCCCCCCCCO [1-Decanol] | 31.32 | 31.4 | 
CCCCCCCCCCCCO [1-Dodecanol] | 28.55 | 38.7 | 
CCCCCCCO [1-Heptanol] | 39.10 | 39.3 | 
CCCCCCCCCCCCCCCCO [1-Hexadecanol] | 31.97 | 37 | 
CCCCCCO [1-Hexanol] | 40.27 | 38.9 | 
c1ccc(Nc2cccc3ccccc23)cc1 [1-NPN, N-phenyl-1-naphthylamine] |  |  | Kd (DabiOBP14; 2 μM protein, 2–16 μM 1-NPN, 20 mM Tris-HCl pH 7.4, read-out: K1-NPN binding constant of DabiOBP14 and 1-NPN): 4.5 ± 0.42 µM; Kd (DabiOBP5; 2 μM protein, 2–16 μM 1-NPN, 20 mM Tris-HCl pH 7.4; read-out: K1-NPN binding constant of DabiOBP5 and 1-NPN): 7.49 ± 0.69 µM
CCCCCCCCCO [1-Nonanol] | 29.98 | 39.6 | 
CCCCCCCCO [1-Octanol] | 35.51 | 35 | 
CCCCCCCCCCCO [1-Undecanol] |  | 37.7 | 
C=CCCCCCCCCC [1-Undecene] |  | 17.4 | 
CCCCCC(C)O (stereo not shown) [2-Heptanol] | 24.86 | 13.9 | 
CCCCCC(C)=O [2-Heptanone] | 33.53 | 36.5 | 
CCCCC(C)=O [2-Hexanone] | 27.57 | 43.1 | 
CCC(C)CO (stereo not shown) [2-Methyl-1-butanol] | 27.78 | 36 | 
CCCCCCCCCCCC(C)=O [2-Tridecanone] | 32.61 | 35.6 | 
CC1=CCC2C(C1)C2(C)C (stereo not shown) [3-Carene] | 29.92 | 41.6 | 
CCCC(=O)CC [3-Hexanone] | 36.58 | 25.3 | 
CC(C)=CCO [3-Methyl-2-buten-1-ol] | 34.58 | 37 | 
CCCCC=CCCO [3-Octenol] | 31.31 | 25.1 | 
CC(C)=CCCC(C)O (stereo not shown) [6-Methyl-5-hepten-2-ol] | 33.49 | 41.4 | 
CC(=O)CCC=C(C)C [6-Methyl-5-hepten-2-one] | 34.39 | 40.3 | 
CC(=O)c1ccccc1 [Acetophenone] | 36.22 | 38.8 | 
CCCCCOC(C)=O [Amyl acetate] | 25.00 |  | OBP5 F.D. (%) fluorescence displacement percent (DabiOBP5; [3]): 26.33%
O=Cc1ccccc1 [Benzaldehyde] | 38.35 | 36.8 | 

SMILES | OBP14 F.D. (%) fluorescence displacement percent (DabiOBP14; [1]) [%] | inhibition at 20 µM (DabiOBP5; [2]) [%] | other results
O=C(OCc1ccccc1)c1ccccc1 [Benzyl benzoate] | 49.39 | 47.8 | 
CCCCOC(C)=O [Butyl acetate] |  | 31.6 | OBP14 F.D. (%) fluorescence displacement percent (DabiOBP14; pH 7.4): 0.16%
O=C(NC(=O)c1ccccc1Cl)Nc1ccc(Cl)cc1 [Chlorbenzuron] | 47.43 |  | OBP5 F.D. (%) fluorescence displacement percent (DabiOBP5; [3]): 39.11%
CCOCn1c(-c2ccc(Cl)cc2)c(C#N)c(Br)c1C(F)(F)F [Chlorfenapyr] | 60.84 |  | Ki (DabiOBP14; listed as chlorfenapyr): < 13 µM; Ki (DabiOBP14): 8.41 ± 0.42 µM; inhibition at 20 µM (DabiOBP5; [4]): 62%; Ki (DabiOBP5; [5]): 8.16 ± 0.55 µM; Ki (DabiOBP5; read-out: OBP5 Ki (dissociation constant); competitive displacement of 1-NPN; three replicates; mean ± SE; listed as chlorfenapyr): < 13 µM
CCOP(=S)(OCC)Oc1nc(Cl)c(Cl)cc1Cl [Chlorpyrifos] | 72.41 |  | Ki (DabiOBP14; listed as chlorpyrifos): < 13 µM; Ki (DabiOBP14): 4.62 ± 0.46 µM; inhibition at 20 µM (DabiOBP5; [4]): 66.1%; Ki (DabiOBP5; [5]): 5.92 ± 0.48 µM; Ki (DabiOBP5; read-out: OBP5 Ki (dissociation constant); competitive displacement of 1-NPN; three replicates; mean ± SE; listed as chlorpyrifos): < 13 µM
CCCCCCCCCC=O [Decanal] | 21.35 | 29.1 | 
CCCCCCCCCC [Decane] |  | 20.2 | 
CCCCCCCCCCOC(C)=O [Decyl acetate] | 15.15 | 26.2 | 
CC1(C)[C@H](C(=O)O[C@H](C#N)c2cccc(Oc3ccccc3)c2)[C@@H]1C=C(Br)Br [Deltamethrin] | 38.21 | 28.5 | 
O=C(NC(=O)c1c(F)cccc1F)Nc1ccc(Cl)cc1 [Diflubenzuron] | 30.33 | 21.4 | 
CCCCCCCCCCCC=O [Dodecanal] | 3.43 | 30.6 | 
CCCCCCCCCCCC [Dodecane] | 17.71 | 31.9 | 
CCC/C=C/CO [E2-Hexen-1-ol] | 18.64 |  | OBP5 F.D. (%) fluorescence displacement percent (DabiOBP5; [3]): 36.50%
CCC/C=C/C=O [E2-Hexenal] | 32.34 |  | OBP5 F.D. (%) fluorescence displacement percent (DabiOBP5; [3]): 33.10%
CCOC(C)=O [Ethyl acetate] | 23.29 | 19 | 
CCOC(=O)c1ccccc1 [Ethyl benzoate] | 30.02 | 29.4 | 
CCCC(=O)OCC [Ethyl butyrate] | 31.72 | 32 | 
CCCCCC(=O)OCC [Ethyl hexanoate] | 29.43 | 24.2 | 
CCCCC/C=C\C=C\C(=O)OCC [Ethyl-(2E,4Z)-decadienoate] | 68.07 |  | Ki (DabiOBP14; listed as ethyl-(2E,4Z)-decadienoate): < 13 µM; Ki (DabiOBP14): 6.45 ± 0.43 µM; Ki (DabiOBP5; competitive displacement of 1-NPN; three replicates; mean ± SE; listed as ethyl-(2E,4Z)-decadienoate; read-out: OBP5 Ki (dissociation constant)): < 13 µM; Ki (DabiOBP5; competitive displacement of 1-NPN; three replicates; mean ± SE; read-out: OBP5 Ki (dissociation constant)): 5.67 ± 0.55 µM; OBP5 F.D. (%) fluorescence displacement percent (DabiOBP5; [3]): 69.83%
CC(C)=CCC/C(C)=C/CC/C(C)=C/CO [Farnesol] | 36.20 | 36.3 | 
CCCCCCCCC [Nonane] |  | 22.2 | 
CCCCCCCC [Octane] |  | 27.9 | 
CCCCCCCCCCCCC [Tridecane] |  | 5.52 | 
C/C1=C\CC/C(C)=C/CC(C)(C)/C=C/C1 [α-Caryophyllene] |  |  | OBP5 F.D. (%) fluorescence displacement percent (DabiOBP5; [3]): 15.42%
C=C1CC/C=C(\C)CC[C@@H]2[C@@H]1CC2(C)C [β-Caryophyllene] |  | 16.3 | 
